# Measurements reported in patent publication US11142527B2, “Dihydropyrimidine compounds and uses thereof in medicine” (SUNSHINE LAKE PHARMA CO., LTD., priority 2017, dated 2021).
# What was measured:
# HBV = assay: Test of anti HBV activity in vitro (viral DNA by qPCR); assay type: cell-based; conditions: Hepatitis B virus; HepG2.2.15 cells, viral DNA in cell culture supernatant by qPCR; read-out: EC50 values of the compound of the invention on viral replication
# Procedure: Test 1: Test Method of Calculating Anti HBV EC50
# HBV Cell Line and Culture Conditions
# HepG2.2.15 (SELLS, PNAS, 1987 and SELLS, JV, 1988) chromosomes have an integrated complete HBV genome, and stably express viral RNA and viral protein. HepG2.2.15 cells can secrete mature HBV particles, HBsAg and HBeAg, to medium. HepG2.2.15 cells were cultured in DMEM containing 10% fetal bovine serum, 100 U/mL penicillin, 100 U/mL streptomycin, 1% non essential amino acid, 1 mM sodium pyruvate and 300 μg/mL G418.
# Viral particles DNA secreted from HepG2.2.15 cells can be quantified by qPCR, and the effect of the compound on viral replication can be detected.
# Test of Anti HBV Activity In Vitro
# 8000 HepG 2.2.15 cells per well were seeded into a 96-well plate, the plate was cultured at 37° C. and 5% CO2 for 3 days till the cells grew to full wells. Old liquid medium can be removed and replaced with new medium (200 μL) on day 0.
# Formulating the compound and treating the cells in the experiment of anti virus: the compound was dissolved in DMSO to a concentration of 30 mM, and then the compound solution was diluted with DMSO to a concentration of 800 μM, and then eight dilutions at 4 fold were performed, the highest concentration is 800 μM. The serial diluted compound was added to the above plate at 1 μL per well, the highest final concentration in the experiment is 4 μM (200 fold dilution). TDF (tenofovir dipiroxil fumarate, Selleck, Cat S1400) has a highest concentration of 4 μM as a positive control. 1 μL of DMSO was added in to the […] at a final concentration of 0.5%, TDF was added in to the […] at a final concentration of 1 μM.
# Detection of Viral Genomic DNA by aPCR
# Primer: HBV-For-202, […]; HBV-Rev-315, […]. Copies of virus can be calculated using a standard curve plotted by using plasmid containing HBV genome and using SYBR Premix Ex Taq II—Takara DRR081S kit and 1 μL cell culture supernatant as a template. EC50 values of the compound on viral replication were calculated by a four parametric nonlinear regression model using Graphpad Prism 5 software to manage concentration—viral copy number.
# [1] = Cytotoxicity test with CellTiter Glo; assay type: cell-based; conditions: human, HepG2.2.15 cells, highest concentration 150 μM, read-out: CC50 values of the compounds of the invention
# Procedure: Test 2: Cytotoxicity and Selectivity Index
# Methods of Testing Cytotoxicity and Selectivity Index
# The serial diluted compound was added to a 384 wells plate at 50 μL HepG2.2.15 cell per well (3000 cells per well), the highest final concentration in the experiment is 150 μM (200 fold dilution). The plate was cultured at 37° C. in an incubator with CO2 for 4 days, and cytotoxicity of the compound was detected using CellTiter Glo agent.
# The cytotoxicity of the compound was calculated using the following formulate, cytotoxicity (%)=100−(detection value/mean of DMSO control wells values×100) CC50 values were calculated by a four parametric nonlinear regression model using Graphpad Prism 5 software to manage concentration−cytotoxicity (%).
Compound,EC50 (HBV),CC50 at 4 days [1]
"COC(=O)C1=C(CN2CCN3C(=O)N(c4nc(-c5ccc(C(C)(C)C(=O)O)cc5)cs4)C[C@@H]3C2)NC(c2nccs2)=N[C@H]1c1ccc(F)cc1Cl [Example 17, 2-(4-(2-((S)-7-(((R)-6-(2-chloro-4-fluorophenyl)-5-(methoxycarbonyl)-2-(thiazol-2-yl)-3,6-dihydropyrimidin-4-yl)methyl)-3-oxohexahydroimidazo[1,5-a]pyrazin-2(3H)-yl)thiazol-4-yl)phenyl)-2-methylpropionic acid]",6 nM,> 150000 nM
"COC(=O)C1=C(CN2CCN3C(=O)N(c4ccc(-c5ccc(C(C)(C)C(=O)O)cc5)cn4)C[C@@H]3C2)NC(c2nccs2)=N[C@H]1c1ccc(F)cc1Cl [Example 19, 2-(4-(6-((S)-7-(((R)-6-(2-chloro-4-fluorophenyl)-5-(methoxycarbonyl)-2-(thiazol-2-yl)-3,6-dihydropyrimidin-4-yl)methyl)-3-oxohexahydroimidazo[1,5-a]pyrazin-2(3H)-yl)pyridin-3-yl)phenyl)-2-methylpropionic acid]",14 nM,> 150000 nM
"COC(=O)C1=C(CN2CCN3C(=O)N(c4ccc(N5CCO[C@H](CCC(=O)O)C5)cc4)C[C@@H]3C2)NC(c2nccs2)=N[C@H]1c1ccc(F)cc1Cl [Example 20, 3-((R)-4-(4-((S)-7-(((R)-6-(2-chloro-4-fluorophenyl)-5-(methoxycarbonyl)-2-(thiazol-2-yl)-3,6-dihydropyrimidin-4-yl)methyl)-3-oxohexahydroimidazo[1,5-a]pyrazin-2(3H)-yl)phenyl)morpholin-2-yl)propionic acid]",4 nM,> 150000 nM
"COC(=O)C1=C(CN2CCN3C(=O)N(c4ccc(Oc5ccc(C(=O)O)cc5F)cn4)C[C@@H]3C2)NC(c2nccs2)=N[C@H]1c1ccc(F)cc1Cl [Example 22, 4-((6-((S)-7-(((R)-6-(2-chloro-4-fluorophenyl)-5-(methoxycarbonyl)-2-(thiazol-2-yl)-3,6-dihydropyrimidin-4-yl)methyl)-3-oxohexahydroimidazo[1,5-a]pyrazin-2(3H)-yl)pyridin-3-yl)oxy)-3-fluorobenzoic acid]",18 nM,> 150000 nM
"COC(=O)C1=C(CN2CCN3C(=O)N(c4cc(F)cc(OC5CCC(C(=O)O)CC5)c4)C[C@@H]3C2)NC(c2nccs2)=N[C@H]1c1ccc(F)cc1Cl (stereo partly drawn) [Example 23, 4-(3-((S)-7-(((R)-6-(2-chloro-4-fluorophenyl)-5-(methoxycarbonyl)-2-(thiazol-2-yl)-3,6-dihydropyrimidin-4-yl)methyl)-3-oxohexahydroimidazo[1,5-a]pyrazin-2(3H)-yl)-5-fluorophenoxy)cyclohexane carboxylic acid]",7 nM,> 150000 nM
COC(=O)C1=C(CN2CCN3C(=O)N(c4ccc(C5(C#N)CC5)cc4)C[C@@H]3C2)NC(c2nccs2)=N[C@H]1c1ccc(F)cc1Cl [Example 26],1 nM,> 150000 nM
"COC(=O)C1=C(CN2CCN3C(=O)N(c4ccc(Oc5ccc(C(=O)NCc6ccccc6Cl)cc5)cc4)C[C@@H]3C2)NC(c2nccs2)=N[C@H]1c1ccc(F)cc1Cl [Example 62, (R)-methyl 4-(2-chloro-4-fluorophenyl)-6-(((S)-2-(4-(4-((2-chlorobenzyl)carbamoyl)phenoxy)phenyl)-3-oxohexahydroimidazo[1,5-a]pyrazin-7(1H)-yl)methyl)-2-(thiazol-2-yl)-1,4-dihydropyrimidine-5-carboxylate]",,> 150000 nM
"COC(=O)C1=C(CN2CCN3C(=O)N(c4ccc(Oc5ccc(C(=O)N6CCOC[C@@H]6CCC(=O)O)cc5)cc4)C[C@@H]3C2)NC(c2nccs2)=N[C@H]1c1ccc(F)cc1Cl [Example 73, 3-((S)-4-(4-(4-((S)-7-(((R)-6-(2-chloro-4-fluorophenyl)-5-(methoxycarbonyl)-2-(thiazol-2-yl)-3,6-dihydropyrimidin-4-yl)methyl)-3-oxohexahydroimidazo[1,5-a]pyrazin-2(3H)-yl)phenoxy)benzoyl)morpholin-3-yl)propanoic acid]",,> 150000 nM
"COC(=O)C1=C(CN2CCN3C(=O)N(c4ccc(Oc5ccc(C(=O)NCC(C)(C)C(=O)O)cc5)cc4)C[C@@H]3C2)NC(c2nccs2)=N[C@H]1c1ccc(F)cc1Cl [Example 75, 3-(4-(4-((S)-7-(((R)-6-(2-chloro-4-fluorophenyl)-5-(methoxycarbonyl)-2-(thiazol-2-yl)-3,6-dihydropyrimidin-4-yl)methyl)-3-oxohexahydroimidazo[1,5-a]pyrazin-2(3H)-yl)phenoxy)benzamido)-2,2-dimethylpropanoic acid]",,> 150000 nM
"COC(=O)C1=C(CN2CCN3C(=O)N(c4cncc(Oc5ccc(C(=O)O)cc5F)c4)C[C@@H]3C2)NC(c2nccs2)=N[C@H]1c1ccc(F)cc1Cl [Example 81, 4-((5-((S)-7-(((R)-6-(2-chloro-4-fluorophenyl)-5-(methoxycarbonyl)-2-(thiazol-2-yl)-3,6-dihydropyrimidin-4-yl)methyl)-3-oxohexahydroimidazo[1,5-a]pyrazin-2(3H)-yl)pyridin-3-yl)oxy)-3-fluorobenzoic acid]",,> 150000 nM
"COC(=O)C1=C(CN2CCN3C(=O)N(c4ccc(Oc5ccc(OCC(F)(F)F)cc5)cc4)C[C@@H]3C2)NC(c2nccs2)=N[C@H]1c1ccc(F)cc1Cl [Example 104, (R)-methyl 4-(2-chloro-4-fluorophenyl)-6-(((S)-3-oxo-2-(4-(4-(2,2,2-trifluoroethoxy)phenoxy)phenyl)hexahydroimidazo[1,5-a]pyrazin-7(1H)-yl)methyl)-2-(thiazol-2-yl)-1,4-dihydropyrimidine-5-carboxylate]",,> 150000 nM
"COC(=O)C1=C(CN2CCN3C(=O)N(c4ccc(-c5ccc(C(=O)O)c(F)c5)cc4F)C[C@@H]3C2)NC(c2nccs2)=N[C@H]1c1ccc(F)cc1Cl [Example 121, 4′-((S)-7-(((R)-6-(2-chloro-4-fluorophenyl)-5-(methoxycarbonyl)-2-(thiazol-2-yl)-3,6-dihydropyrimidin-4-yl)methyl)-3-oxohexahydroimidazo[1,5-a]pyrazin-2(3H)-yl)-3,3′-difluoro-[1,1′-biphenyl]-4-carboxylic acid]",36.4 nM,
"COC(=O)C1=C(CN2CCN3C(=O)N(c4ccc(-c5ccc(C(=O)O)cc5F)nc4)C[C@@H]3C2)NC(c2nccs2)=N[C@H]1c1ccc(F)cc1Cl [Example 124, 4-(5-((S)-7-(((R)-6-(2-chloro-4-fluorophenyl)-5-(methoxycarbonyl)-2-(thiazol-2-yl)-3,6-dihydropyrimidin-4-yl)methyl)-3-oxohexahydroimidazo[1,5-a]pyrazin-2(3H)-yl)pyridin-2-yl)-3-fluorobenzoic acid]",47.4 nM,
"COC(=O)C1=C(CN2CCN3C(=O)N(c4cc(F)cc(N5CCO[C@H](CCC(=O)O)C5)c4)C[C@@H]3C2)NC(c2nccs2)=N[C@H]1c1ccc(F)cc1Cl [Example 131, 3-((R)-4-(3-((S)-7-(((R)-6-(2-chloro-4-fluorophenyl)-5-(methoxycarbonyl)-2-(thiazol-2-yl)-3,6-dihydropyrimidin-4-yl)methyl)-3-oxohexahydroimidazo[1,5-a]pyrazin-2(3H)-yl)5-fluorophenyl)morpholin-2-yl)propanoic acid]",8.6 nM,
"COC(=O)C1=C(CN2CCN3C(=O)N(c4nc(-c5ccc(CC(=O)O)cc5)cs4)C[C@@H]3C2)NC(c2nccs2)=N[C@H]1c1ccc(F)cc1Cl [Example 134, 2-(4-(2-((S)-7-(((R)-6-(2-chloro-4-fluorophenyl)-5-(methoxycarbonyl)-2-(thiazol-2-yl)-3,6-dihydropyrimidin-4-yl)methyl)-3-oxohexahydroimidazo[1,5-a]pyrazin-2(3H)-yl)thiazol-4-yl)phenyl)acetic acid]",4 nM,
"COC(=O)C1=C(CN2CCN3C(=O)N(c4nc(-c5cccc(CCC(=O)O)c5)cs4)C[C@@H]3C2)NC(c2nccs2)=N[C@H]1c1ccc(F)cc1Cl [Example 140, 3-(3-(2-((S)-7-(((R)-6-(2-chloro-4-fluorophenyl)-5-(methoxycarbonyl)-2-(thiazol-2-yl)-3,6-dihydropyrimidin-4-yl)methyl)-3-oxohexahydroimidazo[1,5-a]pyrazin-2(3H)-yl)thiazol-4-yl)phenyl)propanoic acid]",18.3 nM,
